Measured values reported in ChEMBL document CHEMBL4680193, “Isoindoline scaffold-based dual inhibitors of HDAC6 and HSP90 suppressing the growth of lung cancer in vitro and in vivo” (Eur J Med Chem, 2020).
pIC50: −log10 of the molar value. Activity calls are given as the source filed them. No cut-off for these calls is given here.

What was measured:
NCI-H1975 [1] = test: cells; format: functional; settings: Homo sapiens, time 48 hrs
[2] = target: Heat shock protein HSP 90-alpha (Homo sapiens, UniProt P07900); test: Inhibition of HSP90a (unknown origin)
Histone deacetylase 3 = Histone deacetylase 3 (Homo sapiens, UniProt O15379)
Histone deacetylase 3, sequence (O15379 whole entry): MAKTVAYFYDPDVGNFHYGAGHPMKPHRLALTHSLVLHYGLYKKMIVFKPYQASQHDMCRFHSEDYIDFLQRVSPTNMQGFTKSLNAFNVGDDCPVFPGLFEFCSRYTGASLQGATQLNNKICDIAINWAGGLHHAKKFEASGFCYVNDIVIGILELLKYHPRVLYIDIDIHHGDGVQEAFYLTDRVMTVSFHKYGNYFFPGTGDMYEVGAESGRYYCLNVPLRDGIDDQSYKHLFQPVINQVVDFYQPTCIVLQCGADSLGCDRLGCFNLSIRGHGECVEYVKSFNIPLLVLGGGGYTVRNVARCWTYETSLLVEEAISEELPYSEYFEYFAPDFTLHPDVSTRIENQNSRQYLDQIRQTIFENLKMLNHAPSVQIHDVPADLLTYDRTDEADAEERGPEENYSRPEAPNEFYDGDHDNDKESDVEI

[3] = target: T1, Protein deacetylase HDAC6 (Homo sapiens, UniProt Q9UBN7); test: Inhibition of recombinant human HDAC6 using RHK-K(Ac)-AMC as substrate by fluorescence based assay
T1 sequence (Q9UBN7 whole entry): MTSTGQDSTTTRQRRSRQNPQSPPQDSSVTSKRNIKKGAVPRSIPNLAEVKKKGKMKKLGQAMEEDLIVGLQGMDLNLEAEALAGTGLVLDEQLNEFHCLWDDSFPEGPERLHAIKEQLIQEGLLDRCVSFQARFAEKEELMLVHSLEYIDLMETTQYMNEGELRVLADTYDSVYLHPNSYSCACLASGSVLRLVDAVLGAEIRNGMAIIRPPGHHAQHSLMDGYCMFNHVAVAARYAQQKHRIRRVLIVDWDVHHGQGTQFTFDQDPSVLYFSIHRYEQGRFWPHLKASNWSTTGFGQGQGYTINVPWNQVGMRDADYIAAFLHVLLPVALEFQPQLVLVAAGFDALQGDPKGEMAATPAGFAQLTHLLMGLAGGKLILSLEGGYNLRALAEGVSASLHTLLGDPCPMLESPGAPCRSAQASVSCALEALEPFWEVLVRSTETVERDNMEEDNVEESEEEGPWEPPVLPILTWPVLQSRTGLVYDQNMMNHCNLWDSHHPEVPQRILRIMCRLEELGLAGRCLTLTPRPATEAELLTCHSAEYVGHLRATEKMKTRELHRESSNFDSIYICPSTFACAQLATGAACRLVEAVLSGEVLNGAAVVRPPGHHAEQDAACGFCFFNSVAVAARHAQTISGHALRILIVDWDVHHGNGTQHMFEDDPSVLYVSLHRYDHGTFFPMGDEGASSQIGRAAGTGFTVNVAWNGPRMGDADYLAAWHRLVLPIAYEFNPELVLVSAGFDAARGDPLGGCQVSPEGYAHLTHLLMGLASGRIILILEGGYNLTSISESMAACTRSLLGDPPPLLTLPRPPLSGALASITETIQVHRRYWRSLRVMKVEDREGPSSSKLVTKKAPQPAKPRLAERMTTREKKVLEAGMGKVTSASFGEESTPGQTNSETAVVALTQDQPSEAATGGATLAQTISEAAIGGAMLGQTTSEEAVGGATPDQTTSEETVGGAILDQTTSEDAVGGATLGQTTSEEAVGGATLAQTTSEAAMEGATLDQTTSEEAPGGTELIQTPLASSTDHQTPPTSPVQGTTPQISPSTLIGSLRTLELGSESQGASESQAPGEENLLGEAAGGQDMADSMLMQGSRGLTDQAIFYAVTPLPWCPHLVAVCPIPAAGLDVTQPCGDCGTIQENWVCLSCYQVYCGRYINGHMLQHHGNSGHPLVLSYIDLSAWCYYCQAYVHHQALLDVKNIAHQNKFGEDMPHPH

Histone deacetylase 8 = target: T2, Histone deacetylase 8 (Homo sapiens, UniProt Q9BY41); test: Inhibition of recombinant human HDAC8 using RHK-K(Ac)-AMC as substrate by fluorescence based assay
T2 sequence (Q9BY41 whole entry): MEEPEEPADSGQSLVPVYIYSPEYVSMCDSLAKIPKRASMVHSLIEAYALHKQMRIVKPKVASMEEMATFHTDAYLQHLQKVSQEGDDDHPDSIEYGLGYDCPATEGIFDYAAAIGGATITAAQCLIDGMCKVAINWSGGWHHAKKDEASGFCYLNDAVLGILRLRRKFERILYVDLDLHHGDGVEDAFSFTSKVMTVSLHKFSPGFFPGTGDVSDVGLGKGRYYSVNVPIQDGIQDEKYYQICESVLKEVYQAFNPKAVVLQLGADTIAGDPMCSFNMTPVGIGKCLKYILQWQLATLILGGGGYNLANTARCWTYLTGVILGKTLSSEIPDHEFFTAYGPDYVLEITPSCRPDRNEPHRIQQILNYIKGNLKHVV

Homo sapiens = species on record: Homo sapiens; test: Selectivity index, ratio of IC50 for recombinant human HDAC8 to IC50 for recombinant human HDAC6
[4] = target: Heat shock protein HSP90 (Homo sapiens) (UniProt P07900+P08238); test: Inhibition of HSP90 in human NCI-H1975 cells assessed as decrease in Akt Ser473 phosphorylation at 3 uM measured after 6 hrs by Western blot analysis; format: cell-based
NCI-H1975 [5] = test: Induction of apoptosis in human NCI-H1975 cells assessed as increase in caspase 3 activation incubated for 48 hrs by PI staining based Western blot analysis; format: functional, cell-based; settings: dose 0.1-3 µM
NCI-H1975 [6] = test: Induction of apoptosis in human NCI-H1975 cells assessed as increase in gammaH2AX activation incubated for 48 hrs by PI staining based Western blot analysis; format: functional, cell-based; settings: dose 0.1-3 µM

For `CC(C)c1cc(C(=O)N2Cc3ccc(NC(=O)CCCCCCCCC(=O)NO)cc3C2)c(O)cc1O`, the GI50 (NCI-H1975 [1]) was 520 nM, the pIC50 [2] was 7.33 and the pIC50 (Histone deacetylase 3) was 5.88. The pIC50 [3] was 8.36, the pIC50 (Histone deacetylase 8) was 5.43 and the Ratio IC50 (Homo sapiens) was 861. The inhibition [4] was “Active”, the Activity (NCI-H1975 [5]) was “Dose-dependent effect” and the Activity (NCI-H1975 [6]) was “Dose-dependent effect”.
